Numbered stars: 1 amine (or outer) side, 2 acyl side, 3 side chain; on linkers, the order of the positions; unused ones are H or OH. Bridge positions count the residues as written; N and C are the ends. Square brackets hold non-standard residues; d marks the D form. Peptide text beside a SMILES is read from it. I, II: the chains in the order shown. Diglycolyl = O=C(COCC(=O)[*:2])[*:1]; Dmt = Cc1cc(O)cc(C)c1C[C@H](N)C(=O)O; β3hF = N[C@H](CC(=O)O)Cc1ccccc1; Sar = CNCC(=O)O
Columns and labels:
δ-opioid receptor (DOR) = target: T1, δ-opioid receptor (DOR) (Homo sapiens, UniProt P41143); test: DOR agonist cAMP assay (HitHunter cAMP, forskolin-stimulated); assay type: cell-based
T1 construct: host or cells: cAMP Hunter CHO-K1 OPRD1 Gαi cell line
T1 sequence (P41143 whole entry): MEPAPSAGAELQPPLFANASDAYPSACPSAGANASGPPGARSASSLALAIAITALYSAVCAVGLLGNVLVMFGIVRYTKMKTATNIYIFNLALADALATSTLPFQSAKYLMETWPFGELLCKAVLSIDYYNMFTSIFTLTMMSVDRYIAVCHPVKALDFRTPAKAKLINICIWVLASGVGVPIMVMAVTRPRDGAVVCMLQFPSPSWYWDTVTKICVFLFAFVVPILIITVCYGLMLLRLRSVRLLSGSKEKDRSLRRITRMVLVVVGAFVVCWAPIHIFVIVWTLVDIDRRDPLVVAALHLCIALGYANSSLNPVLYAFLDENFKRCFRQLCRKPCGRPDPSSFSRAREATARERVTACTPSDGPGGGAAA
In short: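 CHO-K1 Gαi cells expressing OPRM1 or OPRD1 were exposed 30 min at 37° C to 11-point threefold agonist dilutions, in duplicate, with 20 uM forskolin final. cAMP quantified by EFC chemiluminescent competitive immunoassay against cAMP standards. EC50 by four-parameter Hill nonlinear regression.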

[1] = SGF assay (stability in simulated gastric fluid); assay type: in vitro ADME; conditions: pig, simulated gastric fluid (SGF) with porcine pepsin, pH 2, pepsin, 37° C.
Experimental: SGF was prepared by adding 20 mg NaCl, 32 mg porcine pepsin (MP Biochemicals, catalog 02102599), and 70 μl HCl to 10 ml water (final pH=2). Aliquots of SGF (0.5 ml each) were pre-warmed at 37° C. To start the reaction, 1 μl of opioid agonist peptide stock solution (10 mM in DMSO) was added to 0.5 ml SGF and thoroughly mixed such that the final peptide concentration was 20 μM. The reactions were incubated at 37° C. with gentle shaking.
At each timepoint (0, 15, 30, 60 min) 50 µl aliquots were removed and added to 200 ul of acetonitrile containing 0.1% formic acid to quench the reaction. Samples were stored at 4° C. until the end of the experiment and centrifuged at 10,000 rpm for 5 minutes. Aliquots of the supernatant were removed, diluted 1:1 into distilled water containing internal standard, and analyzed by LCMS/MS. The percent of the opioid agonist peptide remaining at each timepoint was calculated based on the peak area response ratio of the opioid agonist peptide to the internal standard. Time 0 was set to 100%, and all later timepoints were calculated relative to time 0. Half-lives were calculated by fitting to a first-order exponential decay equation using GraphPad.

[2] = SIF assay (stability in simulated intestinal fluid); assay type: in vitro ADME; conditions: simulated intestinal fluid (SIF) with pancreatin; simulated intestinal fluid, pH 6.8, pancreatin, 37° C., 20 μM
Experimental: SIF was prepared by adding 6.8 g of monobasic potassium phosphate and 10.0 g of pancreatin to 1.0 L of water. After dissolution, the pH was adjusted to 6.8 using NaOH. DMSO stocks (2 mM) were prepared for each of the opioid agonist peptides. Aliquots of the DMSO solutions were dosed into […], each containing 0.5 mL of SIF, which was pre-warmed to 37° C. The final opioid agonist peptide concentration was 20 μM. The vials were kept in a benchtop Thermomixer® for the duration of the experiment. At each timepoint (0, 5, 10, 20, 40, 60, or 360 minutes or 24 hours), 1.0 mL of acetonitrile containing 1% formic acid was added to one vial to terminate the reaction. Samples were stored at 4° C. until the end of the experiment. After the final timepoint was sampled, the tubes were mixed and then centrifuged at 3,000 rpm for 10 minutes. Aliquots of the supernatant were removed, diluted 1:1 into distilled water containing an internal standard, and analyzed by LCMS/MS. The percent of the opioid agonist peptide remaining at each timepoint was calculated based on the peak area response ratio of opioid agonist peptide to the internal standard. Time 0 was set to 100%, and all later timepoints were calculated relative to time 0. Half-lives were calculated by fitting to a first-order exponential decay equation using Graph pad.

μ-opioid receptor (MOR) = target: T2, μ-opioid receptor (MOR) (Homo sapiens, UniProt P35372); test: MOR agonist cAMP assay (HitHunter cAMP, forskolin-stimulated); assay type: cell-based
T2 construct: host or cells: cAMP Hunter CHO-K1 OPRM1 Gαi cell line
T2 sequence (P35372 whole entry): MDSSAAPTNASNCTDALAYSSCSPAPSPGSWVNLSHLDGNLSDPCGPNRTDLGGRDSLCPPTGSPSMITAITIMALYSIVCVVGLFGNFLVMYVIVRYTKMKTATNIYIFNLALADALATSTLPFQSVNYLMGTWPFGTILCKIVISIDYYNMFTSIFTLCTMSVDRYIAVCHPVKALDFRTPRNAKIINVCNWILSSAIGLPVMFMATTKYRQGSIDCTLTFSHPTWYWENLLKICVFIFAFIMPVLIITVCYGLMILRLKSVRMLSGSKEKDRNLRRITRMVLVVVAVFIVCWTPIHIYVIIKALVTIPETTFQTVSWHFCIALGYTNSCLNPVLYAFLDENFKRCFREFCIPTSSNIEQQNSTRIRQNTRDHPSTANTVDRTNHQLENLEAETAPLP
Experimental: The HitHunter® cAMP chemiluminescent assay kit (DiscoveRx, Cat# 90-0075 SM25) was used to detect cAMP production in cAMP Hunter™ Gαi cell lines over expressing either Human-ORPM1 (Discoverx, Catalog# 95-0107C2) or Human-ORPD1 (DiscoveRx, Catalog# 95-0108C2). Opioid agonist binding to the Gαi receptors inhibits the intracellular cAMP accumulation induced by forskolin, which activates adenylate cyclase and increases intracellular levels of cAMP.
Cells were cultured in media consisting of Ham's F-12 Nutrient Mix (Life Technologies, Catalog#31765035), 10% FBS (Life Technologies, Catalog# 16140-071), 4 mM GlutaMAX (Life Technologies, Catalog#35050-061), […] (Life Technologies), 100 ug/ml of Penn-Strep (Life Technologies) and 0.5 mg/ml Geneticin (Life Technologies, Catalog# 10131-027). The cultures were maintained at 37° C. under 5% CO2.
In preparation for cAMP assay, the cells were seeded at a density of 300,000 cells/ml in 100 ul of media/well in 96-well microplate. Wells that were designated for cAMP standards were left empty.
Opioid agonist serial dilutions were prepared in separate dilution plate (11-point series of 3× (3-fold) dilution) in Cell Assay buffer, including 3× forskolin for Gαi target. For Hunter CHO-K1 OPRM1 or CHO-K1 OPRD1 Gαi Cell Lines, the final forskolin concentration was 20 uM.
15 ul of each 3× opioid agonist serial dilution was added in the presence of forskolin in duplicate to the designated wells. The final concentration of each dilution was at 3× of the final screening concentration. The assay plate was incubated for 30 min, at 37° C. under 5% CO2.
Cellular cAMP concentrations were measured using the HitHunter cAMP Assay kit following the manufacturer's protocol. HitHunter cAMP assay is a gain-of-signal competitive immunoassay based on Enzyme Fragment Complementation (EFC) technology. The kit uses β-galactosidase (β-gal) enzyme split into Enzyme Donor (ED) and Enzyme Acceptor (EA). The cellular cAMP and ED-labelled cAMP compete for anti-cAMP antibody. […] When cellular cAMP level is high, it competes for the anti-cAMP antibody, thereby releasing ED-cAMP to complement with EA to produce a luminescent signal. The amount of signal is directly proportional to the amount of cAMP in cells and can be quantified using cAMP standards. The assay plates were read using a PerkinElmer Envision instrument to detect the chemiluminescence signal in each well (luminescence reader at 0.1 to 1 second/well). Data analysis was performed using Graphpad Prism 7.EC50 was calculated by nonlinear regression, using the four-parameter hill equation.

SMILES | EC50 (δ-opioid receptor (DOR)) [nM] | half-life at 20 μM [1] [h] | half-life at 20 μM [2] [h] | EC50 (μ-opioid receptor (MOR)) [nM]
Cc1cc(O)cc(C)c1C[C@H](N)C(=O)N[C@H](C)C(=O)NCC(=O)N[C@H](CC(=O)N(C)CC(=O)O)Cc1ccccc1 [compound 87] | < 1 | 6 to 24 | > 24 | –
Cc1cc(O)cc(C)c1C[C@H](N)C(=O)N[C@H](C)C(=O)NCC(=O)N[C@H](CC(=O)NCC(N)=O)Cc1ccccc1 [compound 112] | < 1 | > 24 | > 24 | –
Cc1cc(O)cc(C)c1C[C@H](N)C(=O)N[C@H](C)C(=O)NCC(=O)N[C@H](CC(=O)N(CCC(C)C)CC(N)=O)Cc1ccccc1 [compound 116] | < 1 | > 24 | > 24 | –
Cc1cc(O)cc(C)c1C[C@H](N)C(=O)N[C@H](C)C(=O)NCC(=O)N[C@H](CC(=O)N(CCCOC(C)C)CC(N)=O)Cc1ccccc1 [compound 117] | < 1 | > 24 | > 24 | –
Cc1cc(O)cc(C)c1C[C@H](N)C(=O)N[C@H](C)C(=O)NCC(=O)N[C@H](CC(=O)N(C)[C@@H](CC(C)C)C(=O)O)Cc1ccccc1 [compound 155] | – | > 24 | > 24 | < 1
Cc1cc(O)cc(C)c1C[C@H](N)C(=O)N[C@H](C)C(=O)NCC(=O)N[C@H](CC(=O)N(C)[C@H](C(=O)O)c1ccccc1)Cc1ccccc1 [compound 157] | < 1 | – | > 24 | < 1
CCCC[C@@H](C(=O)O)N(C)C(=O)C[C@H](Cc1ccccc1)NC(=O)CNC(=O)[C@@H](C)NC(=O)[C@@H](N)Cc1c(C)cc(O)cc1C [compound 159] | – | > 24 | > 24 | < 1
Cc1cc(O)cc(C)c1C[C@H](N)C(=O)N[C@@H](C(=O)NCC(=O)N[C@H](CC(=O)N(C)[C@@H](C)C(=O)O)Cc1ccccc1)[C@H](C)O [compound 183] | < 1 | – | – | < 1
CCC[C@@H](C(N)=O)N(C)C(=O)C[C@H](Cc1ccccc1)NC(=O)CNC(=O)[C@@H](C)NC(=O)[C@@H](N)Cc1c(C)cc(O)cc1C [compound 184] | < 1 | – | – | < 1
Cc1cc(O)cc(C)c1C[C@H](N)C(=O)N[C@H](CCC(=O)O)C(=O)NCC(=O)N[C@H](CC(=O)N(C)[C@@H](C)C(=O)O)Cc1ccccc1 [compound 185] | < 1 | – | – | 1 to 10
CC[C@H](C)[C@@H](C(=O)O)N(C)C(=O)C[C@H](Cc1ccccc1)NC(=O)CNC(=O)[C@@H](CCC(=O)O)NC(=O)[C@@H](N)Cc1c(C)cc(O)cc1C [compound 186] | < 1 | – | – | 1 to 10
Cc1cc(O)cc(C)c1C[C@H](N)C(=O)N[C@H](CCC(=O)O)C(=O)NCC(=O)N[C@H](CC(=O)N(C)CC(N)=O)Cc1ccccc1 [compound 187] | 1 to 10 | – | – | < 1
Cc1cc(O)cc(C)c1C[C@H](N)C(=O)N[C@H](C)C(=O)NCC(=O)N[C@H](CC(=O)N(C)CC(=O)N[C@H](CCCCNC(=O)COCC(=O)NCCCC[C@@H](NC(=O)CN(C)C(=O)C[C@H](Cc1ccccc1)NC(=O)CNC(=O)[C@@H](C)NC(=O)[C@@H](N)Cc1c(C)cc(O)cc1C)C(N)=O)C(N)=O)Cc1ccccc1 [compound 271] (I: H-[Dmt][dA]G[β3hF][Sar][dK]-NH2 / II: H-[Dmt][dA]G[β3hF][Sar][dK]-NH2; linker I:6-II:6 via Diglycolyl) | 1 to 10 | – | – | 1 to 10

Reference: patent publication US10278957B2, “Opioid agonist peptides and uses thereof” (Protagonist Therapeutics, Inc., priority 2017, dated 2019)
